This is an account of results in patent publication US20040204383A1, “Lysophosphatidic acid analogs and inhibition of neointima formation” (priority 2003, published 2004).

“Also recorded” adds a separate entry of the source.

The target in one experiment is T1, PPARγ (Homo sapiens, UniProt P37231).
T1 construct: expressed in transfected cells; host or cells: CV-1 cells, transient transfection with LipofectAMINE 2000
T1 sequence (P37231 1-505): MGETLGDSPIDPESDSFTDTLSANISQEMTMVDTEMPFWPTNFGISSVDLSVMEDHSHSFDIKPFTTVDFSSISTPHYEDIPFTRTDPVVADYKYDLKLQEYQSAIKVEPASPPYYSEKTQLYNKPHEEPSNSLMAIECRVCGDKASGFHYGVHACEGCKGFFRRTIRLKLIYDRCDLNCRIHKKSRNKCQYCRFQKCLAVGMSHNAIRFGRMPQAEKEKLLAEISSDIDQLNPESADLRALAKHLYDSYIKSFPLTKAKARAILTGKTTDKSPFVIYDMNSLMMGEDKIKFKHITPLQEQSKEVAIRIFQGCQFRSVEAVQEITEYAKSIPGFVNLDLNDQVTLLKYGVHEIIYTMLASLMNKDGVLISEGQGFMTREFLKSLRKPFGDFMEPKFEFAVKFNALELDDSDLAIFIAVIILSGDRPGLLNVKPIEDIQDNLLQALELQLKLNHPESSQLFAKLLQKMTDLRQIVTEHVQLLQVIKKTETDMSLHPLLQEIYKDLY
T1 sequence (P19793 1-462 partner): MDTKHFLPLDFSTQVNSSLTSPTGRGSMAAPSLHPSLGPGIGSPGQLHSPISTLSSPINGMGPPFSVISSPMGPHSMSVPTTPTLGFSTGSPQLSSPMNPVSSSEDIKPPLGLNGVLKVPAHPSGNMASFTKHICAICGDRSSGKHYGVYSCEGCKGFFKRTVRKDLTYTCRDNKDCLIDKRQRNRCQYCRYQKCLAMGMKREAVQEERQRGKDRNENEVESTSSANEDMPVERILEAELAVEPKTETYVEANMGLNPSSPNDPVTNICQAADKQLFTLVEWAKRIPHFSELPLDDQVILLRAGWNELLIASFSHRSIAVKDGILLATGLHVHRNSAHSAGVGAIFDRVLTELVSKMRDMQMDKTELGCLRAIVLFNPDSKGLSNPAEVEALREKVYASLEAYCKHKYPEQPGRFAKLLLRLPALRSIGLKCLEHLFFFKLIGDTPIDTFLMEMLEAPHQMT
Description: PPRE-Acox-Rluc reporter gene assay in CV-1 cells transfected with PPARγ. As to conditions: for activation of the PPRE-Acox-Rluc reporter: 10 μM, 20 h, CV-1 cells (FIG. 6C). It is filed as cell-based. The method, then: CV-1 cells were plated in 96-well plates (5×10^3 cells per well) in DME supplemented with 10% FBS. […] Twenty four hours after transfection, cells were treated with 1% FBS-supplemented OptiMEMI™ (Invitrogen) containing DMSO or test compound (10 μM) in DMSO for 20 h. Luciferase and β-galactosidase activities were measured with the Steady-Glo® Luciferase Assay System (Promega) and the Galacto-Light Plus™ System (Applied Biosystems), respectively. Samples were run in quadruplicate, and the mean±SE were calculated. Data are representative of at least three independent transfections. Student's t test was used for null hypothesis testing, and P<0.05 was considered significant.
On the technique in general: A reporter such as luciferase makes a cellular process visible.

The next experiment concerns rat carotid arteries. Briefly: Induction of neointima formation in rat carotid artery by topical application. It is filed as in vivo. From the text: Briefly, the right carotid artery of anesthetized adult male Sprague-Dawley rats (250-300 g) was surgically exposed. The caudal origin of the common carotid artery was ligated using a vessel clip, followed by exposure and ligation of the internal carotid artery above the bifurcation. The external carotid artery was exposed, and a polyethylene catheter was inserted such that it never reached the common carotid artery, thereby avoiding mechanical injury to the vessel. The clip occluding the common carotid artery was temporarily released, and the vessel was rinsed with a retrograde injection of 500 μl physiological saline to remove residual blood. The vessel was again clipped, and 100 μl of treatment solution was injected. After 60 min of incubation, the cannula was withdrawn, the external carotid artery was ligated, and blood flow was restored. Animals were allowed to recover and were killed 7-56 d later by intracardiac perfusion of 10% buffered formaldehyde (pH 7.4). The common carotid artery from the […] to the bifurcation was dissected, embedded in paraffin, and processed for histological analysis. Five μm-thick sections were cut and stained with hematoxylin and eosin or Masson's trichrome stain. Intima to media ratios were quantified using an image analysis system (Scion Image CMS-800).

For experiment [1], the system named is CD36(−273)-Rluc reporter gene. Briefly: CD36(−273)-Rluc reporter gene (with PPRE) in CV-1 cells. It is filed as cell-based. As to conditions: 10 μM, CV-1 cells (FIG. 7E). The procedure:
Therefore, the investigators compared the unique in vivo neointima-eliciting lysophosphatidic acid structure-activity relationship with that of PPARγ using an in vitro assay that utilizes an acyl-coenzyme A oxidase-luciferase (PPRE-Acox-Rluc) reporter gene construct containing a peroxisome proliferator-activated receptor response element. CV-1 cells were plated in 96-well plates (5×10^3 cells per well) in DME supplemented with 10% FBS. The next day, the cells were transiently transfected with 125 ng of pGL3-PPRE-acyl-CoA oxidase (Acox)-renilla luciferase), or 125 ng pGL3-CD36(−273), or pGL3-CD36(−261), 62.5 ng of pcDNAI-PPARγ, and 12.5 ng of pSV-β-galactosidase (Promega) using LipofectAMINE™ 2000 (Invitrogen). Twenty four hours after transfection, cells were treated with 1% FBS-supplemented OptiMEMI™ (Invitrogen) containing DMSO or test compound (10 μM) in DMSO for 20 h. Luciferase and β-galactosidase activities were measured with the Steady-Glo® Luciferase Assay System (Promega) and the Galacto-Light Plus™ System (Applied Biosystems), respectively. Samples were run in quadruplicate, and the mean±SE were calculated. Data are representative of at least three independent transfections. Student's t test was used for null hypothesis testing, and P<0.05 was considered significant.

In experiment [2] the test system is vascular smooth muscle cells. Description: Phenotypic modulation and dedifferentiation of cultured VSMCs (morphology, hCAD mRNA). It is filed as cell-based, rat. The procedure:
Expression of lysophosphatidic acid-specific G protein-coupled plasma membrane receptors in rat carotid arteries was examined by RT-PCR as described earlier by Wang et al. (2002). To quantify heavy caldesmon mRNA, quantitative PCR was performed applying the real-time SYBR Green PCR method using a Sequence Detection System Model 7700 (Applied Biosystems) instrument. Rat heavy caldesmon and GAPDH (reference control mRNA)-specific primers were designed with Primer Express Software (Applied Biosystems), and forward and reverse primers were as follows: 5′-[…]-3′ (SEQ ID NO:1) and 5′-[…]-3′ (SEQ ID NO:2) for heavy caldesmon; 5′-[…]-3′ (SEQ ID NO:3) and 5′-[…]-3′ (SEQ ID NO:4) for GAPDH. Amplification reaction was performed with SYBR Green PCR Master Mix (Applied Biosystems) following the manufacturer's protocol. mRNA abundance calculation was based on Ct values as described previously (Wang et al., 2002). The expression level of heavy caldesmon mRNA was normalized to GAPDH mRNA. Each PCR reaction was performed at least three times, and the result was expressed as mean±SEM. Statistical comparison of mRNA expression was evaluated by ANOVA, and P<0.05 was considered statistically significant.
It has been reported that unsaturated lysophosphatidic acid species induced phenotypic modulation of cultured vascular smooth muscle cells (VSMCs). Because the neointimal response and PPARγ display a similar selectivity for unsaturated lysophosphatidic acid, that activation of PPARγ plays a role in the phenotypic dedifferentiation is hypothesized herein. This hypothesis was tested in a culture system in which IGF-1 maintains the differentiated spindle shape of vascular smooth muscle cells as indicated by high levels of heavy caldesmon (hCAD) mRNA expression.

[3] abbreviates: 10 μM, rat carotid artery model (FIG. 3C).
[4] abbreviates: 10 ng/ml, 2-wk period (FIG. 5B).

In the case of 2,3-cyclic phosphatidic acid [cPA 18:1], the “activation of the PPRE-Acox-Rluc reporter” value on PPARγ is “inactive”. For the same molecule, the neointima formation result with rat carotid arteries (setting [3]) is “did not elicit detectable neointima”; in the experiment on rat carotid arteries (10 μM, rat carotid artery model (FIG. 3C), listed as cPA), “inactive”. Take 3-O-octadecenyl-glycerophosphate [3AGP]: the neointima formation result in the experiment on rat carotid arteries (setting [3]) is reported as “modestly effective”. Consider `CCCCCCCCC=CCCCCCCCCOCC(O)COP(=O)(O)O` (centres unmarked) [1AGP, 1-octadecenyl-glycerophosphate], for which the neointima formation result with rat carotid arteries (setting [3]) is listed as “highly effective”. Further, the “stimulation of CD36(−273)-Rluc reporter gene” value in experiment [1] is on record as “higher stimulation”.

On to `CCCCCCCCCCCCCCCCOCC(COP(=O)([O-])OCC[N+](C)(C)C)OC(=O)CCCCCCCC(=O)O` (centres unmarked) [AZ-PC, 1-O-hexadecyl-2-azaleoyl-phosphatidylcholine], for which the neointima formation entry with rat carotid arteries (after 2 weeks (FIG. 6B)) is “caused neointima formation”. As for `O=C(Nc1ccccc1)c1cc([N+](=O)[O-])ccc1Cl` [GW9662], the “inhibition of lysophosphatidic acid 20:4-induced PPRE-Acox-Rluc reporter gene expression” value at PPARγ (10 μM (FIG. 6D)) is listed as “abolished”. In experiment [2] (200 nM GW9662), the “effect on LPA 20:4- and Rosi-induced flattened morphology of VSMCs” value is reported as “reversed this effect”. Besides, the “effect on hCAD mRNA expression” value in experiment [2] (200 nM pretreatment, quantitative RT-PCR (FIG. 8I)) is reported as “caused a significant increase in hCAD mRNA expression”. The “effect on morphology of IGF-1- and LPA 20:0-treated VSMC cultures” value in experiment [2] (200 nM, 30 min pretreatment) is “did not affect the spindle-like morphology”. Further, the “inhibition of neointima formation elicited by lysophosphatidic acid 20:4” value with rat carotid arteries (5 μM 30 min before and coapplied with 2.5 μM LPA 20:4) was “completely abolished neointima formation; also recorded: inhibited”. In the experiment on rat carotid arteries (FIG. 6B), the “effect on vessels from animals treated with SOV-PC and saturated lysophosphatidic acid species” value is “had no effect”; the “inhibition of AZ-PC-induced neointima formation” value is listed as “inhibited by GW9662”. Moreover, in the experiment with rat carotid arteries (GW9662 pretreatment (FIG. 6B)), the “inhibition of neointima formation in response to LPA 18:2” value is reported as “inhibited” and the “inhibition of neointima formation in response to minimally oxidized LDL” value is “inhibited”. Further, the “inhibition of Rosi-induced lesion formation” value with rat carotid arteries (GW9662 pretreatment and coapplication (FIG. 6B)) was “fully blocked”. In the case of `CCCCCCCCCCCCCCCCCC(=O)OCC(O)COP(=O)(O)O` (centres unmarked) [LPA 18:0], the neointima formation entry with rat carotid arteries (setting [3]) is reported as “did not elicit detectable neointima”. `CCCCCCCCCCCCC/C=C/[C@@H](O)[C@@H](N)COP(=O)(O)O` [S1P, sphingosine 1-phosphate]: the “activation of the PPRE-Acox-Rluc reporter” value at PPARγ is “inactive”. With `CCCCCCCCCCCCCCCCCC(=O)OC[C@H](COP(=O)([O-])OCC[N+](C)(C)C)OC(=O)CCCC=O` [SOV-PC, stearoyl-oxovaleryl phosphatidylcholine], in the experiment on rat carotid arteries (after 2 weeks (FIG. 6B)), the neointima formation result is listed as “failed to stimulate neointima formation”.

`CCCCCCCCCCCCCCCC(=O)O[C@H](COP(=O)(O)O)C(F)F` [XY4, 1,1-difluorodeoxy-(2R)-palmitoyl-sn-glycero-3-phosphate]: the neointima formation result in the experiment on rat carotid arteries (10 μM, 2-wk period (FIG. 5B)) is on record as “showed neointima formation”.

Take `CCCCCCCCCCCCCCCC(=O)OC[C@@H](F)COP(=O)(O)O` [XY8, 1-palmitoyl-(2R)-fluorodeoxy-sn-glycero-3-phosphate]: the neointima formation result in the experiment with rat carotid arteries (10 μM, 2-wk period (FIG. 5B)) is “showed neointima formation”. As to `CCCCCCCCCCCCCCCCOC[C@@H](O)COP(=O)(O)O` [hexadecyl-GP], on PPARγ, the “activation of the PPRE-Acox-Rluc reporter” value was “activated the reporter gene”. Still for that read-out and setting: under `CCCCCCCCCCCCCCCCCCOC[C@@H](O)COP(=O)(O)O` [octadecyl-GP] stands “activated the reporter gene”. For the molecule “EGF: epidermal growth factor (NSDSECPLSHDGYCLHDGVCMYIEALDKYACNCVVGYIGERCQYRDLKWWELR; UniProt P01133 971-1023, looked up)”, the neointima formation entry with rat carotid arteries (50 ng/ml, 2-wk period (FIG. 5B)) was “failed to induce detectable neointima”; in the experiment on rat carotid arteries (100 ng/ml (summary)) it was “ineffective in inducing neointima formation”. Regarding LPA 18:1, the neointima formation entry in the experiment with rat carotid arteries (10 μM, 2-wk period (FIG. 5B)) is “showed neointima formation”. Further, the “extent of neointima development, concentration dependence” value with rat carotid arteries (2 wk after treatment (FIG. 4B)) is given as “concentration dependent up to 10 μM”. Also, the “concentration at which neointima development reached statistical significance” value in the experiment with rat carotid arteries (P<0.01, FIG. 4B) amounted to 5 µM.

As to PDGF, the neointima formation entry with rat carotid arteries (setting [4]) was “ineffective in inducing neointima formation; also recorded: failed to induce detectable neointima”. The same measure, in the same setting: under VEGF stands “ineffective in inducing neointima formation; also recorded: failed to induce detectable neointima”. With dioctylglycerol pyrophosphate [DGPP], in the experiment on rat carotid arteries (FIG. 6A), the “inhibition of lysophosphatidic acid 20:4-induced neointima formation” value was “modest inhibition”. Turning to lysophosphatidic acid, the “effect of added albumin on compound-induced activation of the PPRE-Acox-Rluc reporter gene” value at PPARγ (albumin 0.04-4% wt/vol, concentration-dependent (FIG. 7G)) is “inhibited”. In addition, at PPARγ (dose-response (FIGS. 6E and F)), the “concentrations sufficient to cause significant activation of the reporter” value is “high nanomolar concentrations”. Moreover, at PPARγ (rat serum 1-20% vol/vol, concentration-dependent (FIG. 7H)), the “effect of added rat serum on compound-induced activation of the PPRE-Acox-Rluc reporter gene” value is given as “inhibited”.
